This is an account of results in ChEMBL document CHEMBL6120948, “Design, Synthesis, and Biological Evaluation of Lysine-Stapled Peptide Inhibitors of p53-MDM2/MDMX Interactions with Potent Antitumor Activity In Vivo” (J Med Chem, 2024).

The nature of series [1]: Antiproliferative activity against human U-87 MG cells expressing wild-type p53 incubated for 72 hrs by MTT assay. Type of series: functional, cell-based, U-87MG ATCC.
The test system of another series is MCF7. Nature of the series: Antiproliferative activity against human MCF7 cells expressing wild-type p53 incubated for 72 hrs by MTT assay. The format is functional, cell-based. The settings on record: MCF7, 72 h. (Tetrazolium dyes change colour on reduction, which living cells bring about.)
The nature of series [2]: Induction of alpha-helical conformation in phosphate buffer at pH 7 at 100 uM by CD analysis. The format is physicochemical. The settings on record: pH 7, 100 µM.
A short description of series [3]: Drug distribution in nucleus of human HCT-116 cells at 40 uM incubated for 4 hrs by Hoechst 33342/DiD dye based confocal microscopy. The format is ADME, subcellular. The settings on record: hct-116, 4 h.
A short description of series [4]: Drug distribution in cytoplasm of human HCT-116 cells at 40 uM incubated for 4 hrs by Hoechst 33342/DiD dye based confocal microscopy. Type of series: ADME, subcellular. The settings on record: hct-116, 4 h.

Turning to `CC(=O)N[C@@H](CC(C)C)C(=O)N[C@H](C(=O)N[C@@H](Cc1ccccc1)C(=O)N[C@H]1CCCCNCc2ccc(cc2)CNCCCC[C@@H](C(=O)N[C@@H](CO)C(=O)N[C@@H](C)C(=O)N[C@@H](C)C(N)=O)NC(=O)[C@H](CC(C)C)NC(=O)[C@H](CCC(N)=O)NC(=O)[C@H](C)NC(=O)[C@H](Cc2c[nH]c3ccccc23)NC(=O)[C@H](Cc2ccc(O)cc2)NC(=O)[C@H](Cc2c[nH]cn2)NC1=O)[C@@H](C)O`, the IC50 (in series [1]; with MCF7) was over 160 µM in each case. Further, the Activity in series [2] is reported as 11%.

Consider `CC(=O)N[C@@H](CC(C)C)C(=O)N[C@H](C(=O)N[C@@H](Cc1ccccc1)C(=O)N[C@@H](CCC(=O)O)C(=O)N[C@H]1CCCCNCc2ccc(cc2)CNCCCC[C@@H](C(=O)N[C@@H](CC(C)C)C(=O)N[C@H](C(=O)N[C@@H](CO)C(=O)N[C@@H](C)C(=O)N[C@@H](C)C(N)=O)[C@@H](C)O)NC(=O)[C@H](C)NC(=O)[C@H](Cc2c[nH]c3ccccc23)NC(=O)[C@H](Cc2ccc(O)cc2)NC1=O)[C@@H](C)O`, for which the figures for the IC50 (in series [1]; in the series on MCF7) were over 160 µM and 6.91 µM, respectively. Besides, in series [2], the Activity is reported as 11%.

As to `CC(=O)N[C@@H](CC(C)C)C(=O)N[C@H](C(=O)N[C@@H](Cc1ccccc1)C(=O)N[C@H]1CCCCNCc2cccc(c2)CNCCCC[C@@H](C(=O)N[C@@H](CO)C(=O)N[C@@H](C)C(=O)N[C@@H](C)C(N)=O)NC(=O)[C@H](CC(C)C)NC(=O)[C@H](CCC(N)=O)NC(=O)[C@H](C)NC(=O)[C@H](Cc2c[nH]c3ccccc23)NC(=O)[C@H](Cc2ccc(O)cc2)NC(=O)[C@H](Cc2c[nH]cn2)NC1=O)[C@@H](C)O`, the results for the IC50 (in series [1]; with MCF7) were 52.9 µM and over 160 µM, respectively. The compound also came in with an Activity in series [2] of 11%.

With `CSCC[C@H](NC(=O)[C@H](CC(C)C)NC(=O)[C@H](CCC(N)=O)NC(=O)[C@@H]1CCCCNCc2ccccc2CNCCCC[C@H](NC(=O)[C@H](Cc2ccccc2)NC(=O)[C@@H](NC(=O)[C@H](CC(C)C)NC(C)=O)[C@@H](C)O)C(=O)N[C@@H](CCC(=O)O)C(=O)N[C@@H](Cc2ccc(O)cc2)C(=O)N[C@@H](Cc2c[nH]c3ccccc23)C(=O)N1)C(=O)N[C@@H](CCC(N)=O)C(=O)N[C@@H](C)C(=O)N[C@@H](C)C(N)=O`, the IC50 (as a rule, the midpoint of a concentration-inhibition curve) in series [1] is 105 µM; with MCF7 it was over 160 µM. In series [2], this compound had an Activity of 11%.

As to `CC(=O)N[C@@H](CC(C)C)C(=O)N[C@H](C(=O)N[C@@H](Cc1ccccc1)C(=O)N[C@H]1CCCCNCc2ccccc2CNCCCC[C@@H](C(=O)N[C@@H](CO)C(=O)N[C@@H](C)C(=O)N[C@@H](C)C(N)=O)NC(=O)[C@H](CC(C)C)NC(=O)[C@H](CCC(N)=O)NC(=O)[C@H](C)NC(=O)[C@H](Cc2c[nH]c3ccccc23)NC(=O)[C@H](Cc2ccc(O)cc2)NC(=O)[C@H](Cc2c[nH]cn2)NC1=O)[C@@H](C)O`, the IC50 (in series [1]; in the series on MCF7) was over 160 µM each time. In series [2], this compound came in with an Activity of 11%.

Turning to `CC(C)C[C@H](NC(=O)CCNC(=O)c1ccc2c(c1)C(=O)OC21c2ccc(O)cc2Oc2cc(O)ccc21)C(=O)N[C@H](C(=O)N[C@@H](Cc1ccccc1)C(=O)N[C@H]1CCCCNCc2cccc(c2)CNCCCC[C@@H](C(=O)N[C@@H](CCC(N)=O)C(=O)N[C@@H](CC(C)C)C(=O)N[C@H](C(=O)N[C@@H](CO)C(=O)N[C@@H](C)C(=O)N[C@@H](C)C(N)=O)[C@@H](C)O)NC(=O)[C@H](Cc2c[nH]c3ccccc23)NC(=O)[C@H](Cc2ccc(O)cc2)NC(=O)[C@H](Cc2c[nH]cn2)NC1=O)[C@@H](C)O`, the Drug uptake entry in series [3] and in series [4] was “Active” each time.

Consider `CC(=O)N[C@@H](CC(C)C)C(=O)N[C@H](C(=O)N[C@@H](Cc1ccccc1)C(=O)N[C@H]1CCCCNCc2ccccc2CNCCCC[C@@H](C(=O)N[C@@H](CCC(N)=O)C(=O)N[C@@H](CC(C)C)C(=O)N[C@H](C(=O)N[C@@H](CO)C(=O)N[C@@H](C)C(=O)N[C@@H](C)C(N)=O)[C@@H](C)O)NC(=O)[C@H](Cc2c[nH]c3ccccc23)NC(=O)[C@H](Cc2ccc(O)cc2)NC(=O)[C@H](Cc2c[nH]cn2)NC1=O)[C@@H](C)O`, for which the IC50 in series [1] was over 160 µM; with MCF7, 11.3 µM. In addition, the Activity in series [2] was found to be 11%.

For the compound `CC(=O)N[C@@H](CC(C)C)C(=O)N[C@H](C(=O)N[C@@H](Cc1ccccc1)C(=O)N[C@@H](CCC(=O)O)C(=O)N[C@H]1CCCCNCc2ccccc2CNCCCC[C@@H](C(=O)N[C@@H](CC(C)C)C(=O)N[C@H](C(=O)N[C@@H](CO)C(=O)N[C@@H](C)C(=O)N[C@@H](C)C(N)=O)[C@@H](C)O)NC(=O)[C@H](C)NC(=O)[C@H](Cc2c[nH]c3ccccc23)NC(=O)[C@H](Cc2ccc(O)cc2)NC1=O)[C@@H](C)O`, the IC50 in series [1] is over 160 µM; in the series on MCF7, 145 µM. Moreover, the Activity in series [2] was determined as 11%.

Consider `CC(=O)N[C@@H](CC(C)C)C(=O)N[C@H](C(=O)N[C@@H](Cc1ccccc1)C(=O)N[C@H]1CCCCNCC#CCNCCCC[C@@H](C(=O)N[C@@H](CO)C(=O)N[C@@H](C)C(=O)N[C@@H](C)C(N)=O)NC(=O)[C@H](CC(C)C)NC(=O)[C@H](CCC(N)=O)NC(=O)[C@H](C)NC(=O)[C@H](Cc2c[nH]c3ccccc23)NC(=O)[C@H](Cc2ccc(O)cc2)NC(=O)[C@H](Cc2c[nH]cn2)NC1=O)[C@@H](C)O`, for which the IC50 (in series [1]; with MCF7) was over 160 µM in each case. In series [2], the Activity turned out to be 11%.

Turning to `CC(=O)N[C@@H](CC(C)C)C(=O)N[C@H](C(=O)N[C@@H](Cc1ccccc1)C(=O)N[C@@H](CCC(=O)O)C(=O)N[C@H]1CCCCNCc2cccc(c2)CNCCCC[C@@H](C(=O)N[C@@H](CC(C)C)C(=O)N[C@H](C(=O)N[C@@H](CO)C(=O)N[C@@H](C)C(=O)N[C@@H](C)C(N)=O)[C@@H](C)O)NC(=O)[C@H](C)NC(=O)[C@H](Cc2c[nH]c3ccccc23)NC(=O)[C@H](Cc2ccc(O)cc2)NC1=O)[C@@H](C)O`, the IC50 in series [1] was 138 µM; in the series with MCF7, over 160 µM. In series [2], this compound displayed an Activity of 11%.

Consider `CSCC[C@H](NC(=O)[C@H](CC(C)C)NC(=O)[C@H](CCC(N)=O)NC(=O)[C@@H]1CCCCNCc2cccc(c2)CNCCCC[C@H](NC(=O)[C@H](Cc2ccccc2)NC(=O)[C@@H](NC(=O)[C@H](CC(C)C)NC(C)=O)[C@@H](C)O)C(=O)N[C@@H](CCC(=O)O)C(=O)N[C@@H](Cc2ccc(O)cc2)C(=O)N[C@@H](Cc2c[nH]c3ccccc23)C(=O)N1)C(=O)N[C@@H](CCC(N)=O)C(=O)N[C@@H](C)C(=O)N[C@@H](C)C(N)=O`, for which the IC50 in series [1] is 21.9 µM; with MCF7, over 160 µM. Further, the Activity in series [2] is 11%.

`CC(=O)N[C@@H](CC(C)C)C(=O)N[C@H](C(=O)N[C@@H](Cc1ccccc1)C(=O)N[C@H]1CCCCNCC#CCNCCCC[C@@H](C(=O)N[C@@H](CCC(N)=O)C(=O)N[C@@H](CC(C)C)C(=O)N[C@H](C(=O)N[C@@H](CO)C(=O)N[C@@H](C)C(=O)N[C@@H](C)C(N)=O)[C@@H](C)O)NC(=O)[C@H](Cc2c[nH]c3ccccc23)NC(=O)[C@H](Cc2ccc(O)cc2)NC(=O)[C@H](Cc2c[nH]cn2)NC1=O)[C@@H](C)O`: the IC50 (in series [1]; in the series with MCF7) was over 160 µM throughout. This compound displayed an Activity in series [2] of 11%.

Regarding `CC(=O)N[C@@H](CC(C)C)C(=O)N[C@H](C(=O)N[C@@H](Cc1ccccc1)C(=O)N[C@@H](CCC(=O)O)C(=O)N[C@H]1CCCCNCC#CCNCCCC[C@@H](C(=O)N[C@@H](CC(C)C)C(=O)N[C@H](C(=O)N[C@@H](CO)C(=O)N[C@@H](C)C(=O)N[C@@H](C)C(N)=O)[C@@H](C)O)NC(=O)[C@H](C)NC(=O)[C@H](Cc2c[nH]c3ccccc23)NC(=O)[C@H](Cc2ccc(O)cc2)NC1=O)[C@@H](C)O`, the IC50 in series [1] was over 160 µM; in the series on MCF7, 19.9 µM. The compound also had an Activity in series [2] of 11%.

In the case of `CC(=O)N[C@@H](CC(C)C)C(=O)N[C@H](C(=O)N[C@@H](Cc1ccccc1)C(=O)N[C@H]1CCCCNCc2ccc(cc2)CNCCCC[C@@H](C(=O)N[C@@H](CCC(N)=O)C(=O)N[C@@H](CC(C)C)C(=O)N[C@H](C(=O)N[C@@H](CO)C(=O)N[C@@H](C)C(=O)N[C@@H](C)C(N)=O)[C@@H](C)O)NC(=O)[C@H](Cc2c[nH]c3ccccc23)NC(=O)[C@H](Cc2ccc(O)cc2)NC(=O)[C@H](Cc2c[nH]cn2)NC1=O)[C@@H](C)O`, the IC50 (in series [1]; in the series on MCF7) was over 160 µM throughout. The Activity in series [2] was 11%.

For `CSCC[C@H](NC(=O)[C@H](CC(C)C)NC(=O)[C@H](CCC(N)=O)NC(=O)[C@@H]1CCCCNCC#CCNCCCC[C@H](NC(=O)[C@H](Cc2ccccc2)NC(=O)[C@@H](NC(=O)[C@H](CC(C)C)NC(C)=O)[C@@H](C)O)C(=O)N[C@@H](CCC(=O)O)C(=O)N[C@@H](Cc2ccc(O)cc2)C(=O)N[C@@H](Cc2c[nH]c3ccccc23)C(=O)N1)C(=O)N[C@@H](CCC(N)=O)C(=O)N[C@@H](C)C(=O)N[C@@H](C)C(N)=O`, the IC50 is over 160 µM in series [1] and 112 µM with MCF7. Also, the Activity in series [2] is recorded as 11%.

With `CSCC[C@H](NC(=O)[C@H](CC(C)C)NC(=O)[C@H](CCC(N)=O)NC(=O)[C@@H]1CCCCNCc2ccc(cc2)CNCCCC[C@H](NC(=O)[C@H](Cc2ccccc2)NC(=O)[C@@H](NC(=O)[C@H](CC(C)C)NC(=O)CCNC(=O)c2ccc3c(c2)C(=O)OC32c3ccc(O)cc3Oc3cc(O)ccc32)[C@@H](C)O)C(=O)N[C@@H](CCC(=O)O)C(=O)N[C@@H](Cc2ccc(O)cc2)C(=O)N[C@@H](Cc2c[nH]c3ccccc23)C(=O)N1)C(=O)N[C@@H](CCC(N)=O)C(=O)N[C@@H](C)C(=O)N[C@@H](C)C(N)=O`, in series [4], the Drug uptake result was “Not_active”.

For the compound Ac-LTFEHYWAQLTS-NH2, the Activity in series [2] amounted to 11%.
